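All cell lines were grown in 96-well plates and treated with compound for 48 hours. At the TGI there is no net growth.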
Experiments:
Experiment in all cases: DTP human tumour cell line panel, 48 h
[1] = test system: OVCAR-3 ovarian
[2] = test system: OVCAR-5 ovarian
[3] = test system: MDA-MB-435
[4] = test system: SK-MEL-28 melanoma
[5] = test system: OVCAR-8 ovarian
[6] = test system: HCC-2998 colon
[7] = test system: NCI-H522 lung
[8] = test system: KM12 colon
[9] = test system: UACC-257 melanoma
[10] = test system: MDA-N
[11] = test system: SW-620 colon
[12] = test system: 786-0 renal
[13] = test system: UACC-62 melanoma
[14] = test system: MALME-3M melanoma
[15] = test system: M14 melanoma
[16] = test system: SNB-19 CNS
[17] = test system: NCI-H226 lung
[18] = test system: BT-549 breast

SMILES | TGI [1] [µM] | TGI [2] [µM] | TGI [3] [µM] | TGI [4] [µM] | TGI [5] [µM] | TGI [6] [µM] | TGI [7] [µM] | TGI [8] [µM] | TGI [9] [µM] | TGI [10] [µM] | TGI [11] [µM] | TGI [12] [µM] | TGI [13] [µM] | TGI [14] [µM] | TGI [15] [µM] | TGI [16] [µM] | TGI [17] [µM] | TGI [18] [µM]
CCOC(=O)N1CC2(C)C=CC1C(C(=O)OC)C2 (stereo not drawn) | > 100 | > 100 | > 100 | > 100 | > 100 | > 100 | > 100 | > 100 | > 100 | > 100 | > 100 | > 100 | > 100 | > 100 | > 100 | > 100 | > 100 | > 100
Nc1ccc(Oc2ccc(C3(c4ccc(Oc5ccc(N)cc5)cc4)C4CC5C6CC7CC5C3C(C7)C6C4)cc2)cc1 | > 100 | > 100 | 82.9 | > 100 | > 100 | > 77.9 | > 100 | > 87.8 | > 100 | > 100 | > 100 | > 100 | > 100 | > 100 | > 100 | > 100 | > 100 | > 100
O=C(Nc1cccc(NC(=O)C(=O)C2CCC3=C(Sc4ccccc4N3)C2=O)n1)C(=O)C1CCC2=C(Sc3ccccc3N2)C1=O (stereo not drawn) | > 100 | > 100 | > 100 | > 100 | > 100 | > 100 | > 100 | > 100 | > 100 | > 100 | > 100 | > 100 | > 100 | > 100 | > 100 | > 100 | > 100 | > 100
COc1cccc(C(=O)Nc2c3ccccc3nc3ccccc23)c1OC | > 100 | > 100 | > 100 | > 100 | > 100 | > 100 | 89.9 | > 100 | > 100 | > 100 | > 100 | > 100 | > 100 | > 100 | > 100 | > 100 | > 100 | > 100
CCc1n[nH]c(=O)n1N1C(=O)CCC1=O | > 100 | > 100 | > 100 | > 100 | > 100 | > 100 | > 100 | > 100 | > 100 | > 100 | > 100 | > 100 | > 100 | > 100 | > 100 | > 100 | > 100 | > 100
CC1=CC=C2c3ccccc3C=CN2C(=O)C1 | > 100 | > 100 | > 100 | > 100 | > 100 | > 100 | > 100 | > 100 | > 100 | > 100 | > 100 | > 100 | > 100 | > 100 | > 100 | > 100 | > 100 | 56.3
Cc1cc(=O)oc2cc(SC(=O)N(C)C)ccc12 | > 100 | > 100 | > 100 | > 100 | > 100 | > 100 | > 100 | > 100 | > 100 | > 100 | > 100 | > 100 | > 100 | > 100 | > 100 | > 100 | > 100 | > 100
CC1(C)C=Cc2c(cc3oc4ccc5c(c4c(=O)c3c2O)C=CC(C)(C)O5)O1 | > 100 | > 100 | > 100 | > 100 | > 100 | > 100 | > 100 | > 100 | > 100 | > 100 | > 100 | > 100 | > 100 | > 100 | > 100 | > 100 | > 100 | > 100
CCOC(=O)/C(C=Nc1c(C)n(C)n(-c2ccccc2)c1=O)=C(/O)c1ccccc1 | > 100 | > 100 | > 100 | > 100 |  | > 100 | > 100 | 0.746 | > 100 | > 100 | > 100 | > 100 | > 100 | > 100 | > 100 | > 100 | > 100 | > 100
Cc1cc(N)ccc1N=Nc1ccc(S(=O)(=O)CCOS(=O)(=O)O)cc1 | 9.55 | 26.4 | 0.502 | 19 | 5.89 | 6.74 | 0.773 | 13.2 | 24.3 | 0.755 | 16.1 | 6.55 | 20.3 | 20.5 | 18.4 | 19.3 | 15.6 | 14.6
CCOC(=O)CC(=O)C(=O)NNC1=NCCN1 | > 100 | > 100 | > 100 | > 100 | > 100 | > 100 | > 100 | > 100 | > 100 | > 100 | > 100 | > 100 | > 100 | > 100 | > 100 | > 100 | > 100 | > 100
NC(=O)NC(=O)CCC(NS(=O)(=O)c1ccccc1)C(=O)NC(N)=O (stereo not drawn) | > 100 | > 100 | > 100 | > 100 | > 100 | > 100 | > 100 | > 100 | > 100 | > 100 | > 100 | > 100 | > 100 | > 100 | > 100 | > 100 | > 100 | > 100
O=C(Nc1ccc(Cl)cc1)NS(=O)(=O)c1coc2ccccc2c1=O | > 10 | > 10 | > 10 | > 10 | > 10 | > 10 | > 10 | > 10 | > 10 | > 10 | > 10 | > 10 | > 10 | > 10 | > 10 | > 10 | > 10 | > 10

Source: PubChem BioAssay (NCI)
